Test results from patent US7494996B2 (priority 2000, dated 2009).

Legend:
Pyricularia oryzae = assay: whole plant or invertebrate; type: in vivo; details: protectant, 300 g/ha, greenhouse; 100 is total disease control, 0 is no disease control
Sphaerotheca fuliginea = assay: Cucumber Powdery Mildew (CPM) protectant test in the greenhouse; type: in vivo; details: 300 g/ha, 100 is total disease control, 0 is no disease control
Summary of the method: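 Compounds in acetone-methanol-water (1:1:2) sprayed onto cucumber cv. "Bush Champion" (cotyledons plus one true leaf, 13 days old), dried 4 h. Inoculated 1 day later with 2×10^5 spores/ml; disease control (%) rated after 7 days in greenhouse.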

Row | SMILES | Rice Blast (RB) protectant fungicide data, percent control (Pyricularia oryzae) [percent control] | Cucumber Powdery Mildew (CPM) protectant fungicide data, percent control (Sphaerotheca fuliginea) [percent control]
1 | Cc1cccc(N2N=C(c3ccc(-c4ccccc4)cc3)NCC2=O)c1 [Compound 186] | 85 | 0
2 | CSc1ccc(C2=NN(c3cccc(C)c3)C(=O)CN2)cc1 [Compound 187] | 80 | 0
3 | Cc1cccc(N2N=C(c3ccc(OCC(F)(F)F)nc3)NCC2=O)c1 [Compound 188] | 80 | 0
4 | CCc1ccc(C2=NN(CCc3ccccc3)C(=O)CN2)cc1 [Compound 189] | 80 | 75
5 | O=C1CNC(c2cc(Cl)nc(Cl)c2)=NN1Cc1ccccc1 [Compound 190] | 80 | 0
6 | C=CCSC(=O)N1CC(=O)N(CCCC)N=C1c1ccc(Cl)c(Cl)c1 [Compound 191] | 95 | 50
7 | C#CCSC(=S)N1CC(=O)N(CCCC)N=C1c1ccc(Cl)c(Cl)c1 [Compound 192] | 99 | 75
8 | O=C1CN(C(=O)Oc2ccccc2)C(c2cc(Cl)cc(Cl)c2)=NN1CC(F)(F)F [Compound 193] | 80 | 0
9 | CCCCN1N=C(c2cc(Cl)cc(Cl)c2)N(C(=O)Oc2ccccc2)CC1=O [Compound 194] | 80 | 0
10 | CCCCN1N=C(c2ccccc2OC)NCC1=O [Compound 195] | 99 | 50
11 | O=C1CNC(c2ccc(Cl)c(Cl)c2)=NN1c1cccc(Cl)c1 [Compound 196] | 99 | 0
12 | CCCCCN1N=C(c2ccc(Cl)c(Cl)c2)NCC1=O [Compound 197] | 99 | 75
13 | CCOC(=O)N1N=C(c2cccc(Cl)c2)NCC1=O [Compound 198] | 80 | 0
14 | CCCCN1N=C(c2ccc(Cl)c(Cl)c2)N(Cc2ccc(OC)cc2)CC1=O [Compound 199] | 90 | 0
15 | CCCCN1N=C(c2ccc(Cl)c(Cl)c2)N(Cc2ccc(OC)c(OC)c2)CC1=O [Compound 200] | 85 | 0
16 | CCCCN1N=C(c2ccc(Cl)c(Cl)c2)N(CC2CCC2)CC1=O [Compound 201] | 85 | 0
17 | C=CC1NC(c2ccc(Cl)c(Cl)c2)=NN(CCCC)C1=O (stereo not shown) [Compound 202] | 90 | 0
18 | C=C(C)C1NC(c2ccc(Cl)c(Cl)c2)=NN(CCCC)C1=O (stereo not shown) [Compound 203] | 85 | 0

Row | SMILES | Rice Blast (RB) protectant fungicide data, percent control (Pyricularia oryzae) [percent control] | Cucumber Powdery Mildew (CPM) protectant fungicide data, percent control (Sphaerotheca fuliginea) [percent control]
19 | CCCCC1=NN(c2ccc(Cl)cc2)C(=O)CN1 [Compound 204] | 75 | 85
20 | CCCCN1N=C(c2ccc(-c3ccc(C(=O)OCC)cc3)cc2)NCC1=O [Compound 206] | 85 | 80
21 | CCCCN1N=C(c2ccc(F)c(Br)c2)NCC1=O [Compound 207] | 100 | 85
22 | O=C1CNC(c2ccc(F)c(Br)c2)=NN1CC(F)(F)F [Compound 208] | 95 | 50
23 | CCC#CCN1CC(=O)N(CC#CCC)N=C1c1ccc(Cl)c(Cl)c1 [Compound 209] | 75 | 0
24 | CCC#CCN1N=C(c2ccc(Cl)c(Cl)c2)NCC1=O [Compound 210] | 100 | 25
25 | CCCCN1N=C(c2cccc(Br)c2)NCC1=O [Compound 211] | 100 | 85
26 | O=C1CNC(c2cccc(Br)c2)=NN1CC(F)(F)F [Compound 212] | 98 | 85
27 | CCCCN1N=C(c2ccccc2OCc2ccccc2)NCC1=O [Compound 213] | 85 | 50
28 | CCOC(=O)N1C(c2cc(Cl)cc(Cl)c2)=NN(CC(F)(F)F)C(=O)C1OC (stereo not shown) [Compound 214] | 50 | 85
29 | C#CCN1N=C(c2ccc(Cl)c(Cl)c2)NCC1=O [Compound 215] | 85 | 0
30 | C#CCN1CC(=O)N(CC#C)N=C1c1ccc(Cl)c(Cl)c1 [Compound 216] | 98 | 80
31 | C#CCN1CC(=O)N(CC#C)N=C1c1ccc(F)c(Br)c1 [Compound 217] | 85 | 0
32 | C#CCN1N=C(c2ccc(F)c(Br)c2)NCC1=O [Compound 218] | 98 | 80
33 | O=C1CN(CC2CC2)C(c2ccc(F)c(Br)c2)=NN1CC1CC1 [Compound 219] | 50 | 75
34 | O=C1CNC(c2ccc(F)c(Br)c2)=NN1CC1CC1 [Compound 220] | 100 | 80
35 | CCCCN1N=C(c2cccc(F)c2)NCC1=O [Compound 221] | 85 | 80
